Data as given in PubChem BioAssay (NCI).
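Protocol summary: plate cells (96-well), add compound at 5 concentrations, incubate 48 h, interpolate endpoints linearly. The concentration for 50% growth inhibition is given as GI50. TGI: concentration producing complete growth inhibition.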

What was measured:
Assay in all cases: NCI tumour cell line growth inhibition, 48 h
786-0 renal = test system: 786-0 renal
A498 renal = test system: A498 renal
A549 NSCLC = test system: A549 NSCLC
ACHN renal = test system: ACHN renal
BT-549 breast = test system: BT-549 breast
CAKI-1 renal = test system: CAKI-1 renal
CCRF-CEM leukemia = test system: CCRF-CEM leukemia
COLO 205 colon = test system: COLO 205 colon
DU-145 prostate = test system: DU-145 prostate
EKVX NSCLC = test system: EKVX NSCLC
HCC-2998 colon = test system: HCC-2998 colon
HCT-116 colon = test system: HCT-116 colon
HCT-15 colon = test system: HCT-15 colon
HL-60(TB) leukemia = test system: HL-60(TB) leukemia
HOP-62 NSCLC = test system: HOP-62 NSCLC
HOP-92 NSCLC = test system: HOP-92 NSCLC
HS 578T breast = test system: HS 578T breast
HT29 colon = test system: HT29 colon
IGROV1 ovarian = test system: IGROV1 ovarian
K-562 leukemia = test system: K-562 leukemia
KM12 colon = test system: KM12 colon
LOX IMVI melanoma = test system: LOX IMVI melanoma
M14 melanoma = test system: M14 melanoma
MALME-3M melanoma = test system: MALME-3M melanoma
MCF7 breast = test system: MCF7 breast
MDA-MB-231 breast = test system: MDA-MB-231 breast
MDA-MB-435 = test system: MDA-MB-435
MDA-MB-468 breast = test system: MDA-MB-468 breast
MOLT-4 leukemia = test system: MOLT-4 leukemia
NCI-H226 lung = test system: NCI-H226 lung
NCI-H23 lung = test system: NCI-H23 lung
NCI-H460 lung = test system: NCI-H460 lung
NCI-H522 lung = test system: NCI-H522 lung
NCI/ADR-RES ovarian = test system: NCI/ADR-RES ovarian
OVCAR-3 ovarian = test system: OVCAR-3 ovarian
OVCAR-4 ovarian = test system: OVCAR-4 ovarian
OVCAR-5 ovarian = test system: OVCAR-5 ovarian
OVCAR-8 ovarian = test system: OVCAR-8 ovarian
PC-3 prostate = test system: PC-3 prostate
RPMI-8226 leukemia = test system: RPMI-8226 leukemia
RXF 393 renal = test system: RXF 393 renal
SF-268 CNS = test system: SF-268 CNS
SF-295 CNS = test system: SF-295 CNS
SF-539 CNS = test system: SF-539 CNS
SK-MEL-2 melanoma = test system: SK-MEL-2 melanoma
SK-MEL-28 melanoma = test system: SK-MEL-28 melanoma
SK-MEL-5 melanoma = test system: SK-MEL-5 melanoma
SK-OV-3 ovarian = test system: SK-OV-3 ovarian
SN12C renal = test system: SN12C renal
SNB-19 CNS = test system: SNB-19 CNS
SNB-75 CNS = test system: SNB-75 CNS
SW-620 colon = test system: SW-620 colon
T-47D breast = test system: T-47D breast
TK-10 renal = test system: TK-10 renal
U251 CNS = test system: U251 CNS
UACC-257 melanoma = test system: UACC-257 melanoma
UACC-62 melanoma = test system: UACC-62 melanoma
UO-31 renal = test system: UO-31 renal

For `C=C1CC[C@@H]2[C@]3(C)COC(c4ccco4)O[C@@H]3CC[C@@]2(C)[C@@H]1C/C=C1/C(=O)OCC1OC(C)=O` (stereo not given in full), the GI50 (786-0 renal) was 18 µM, the TGI (786-0 renal) was 32.8 µM and the GI50 (A498 renal) was over 100 µM. It also gave a TGI (A498 renal) of over 100 µM, a GI50 (A549 NSCLC) of 28.2 µM and a TGI (A549 NSCLC) of over 100 µM. The GI50 (ACHN renal) was 14.9 µM, the TGI (ACHN renal) was 28.8 µM and the GI50 (BT-549 breast) was 15 µM. The TGI (BT-549 breast) was 29.1 µM, the GI50 (CAKI-1 renal) was 15.8 µM and the TGI (CAKI-1 renal) was 32.2 µM. It also gave a GI50 (CCRF-CEM leukemia) of 2.56 µM, a TGI (CCRF-CEM leukemia) of 9.9 µM and a GI50 (COLO 205 colon) of 16 µM. It also gave a TGI (COLO 205 colon) of 31.3 µM, a GI50 (DU-145 prostate) of 15.2 µM and a TGI (DU-145 prostate) of 29.5 µM. The GI50 (EKVX NSCLC) was 14.5 µM, the TGI (EKVX NSCLC) was 31.4 µM and the GI50 (HCC-2998 colon) was 16.8 µM. The TGI (HCC-2998 colon) was 31.4 µM, the GI50 (HCT-116 colon) was 10.8 µM and the TGI (HCT-116 colon) was 26 µM. The GI50 (HCT-15 colon) was 15.6 µM, the TGI (HCT-15 colon) was 38.4 µM and the GI50 (HL-60(TB) leukemia) was 9.35 µM. It also gave a TGI (HL-60(TB) leukemia) of 85.6 µM, a GI50 (HOP-62 NSCLC) of 21.8 µM and a TGI (HOP-62 NSCLC) of 55.7 µM. The GI50 (HOP-92 NSCLC) was 12.3 µM, the TGI (HOP-92 NSCLC) was 45.2 µM and the GI50 (HS 578T breast) was 26.1 µM. The TGI (HS 578T breast) was over 100 µM, the GI50 (HT29 colon) was 13.8 µM and the TGI (HT29 colon) was 30.7 µM. It also gave a GI50 (IGROV1 ovarian) of 16.5 µM, a TGI (IGROV1 ovarian) of 34.2 µM and a GI50 (K-562 leukemia) of 5.84 µM. It also gave a TGI (K-562 leukemia) of over 100 µM, a GI50 (KM12 colon) of 21.7 µM and a TGI (KM12 colon) of 68.7 µM. The GI50 (LOX IMVI melanoma) was 11.8 µM, the TGI (LOX IMVI melanoma) was 24.1 µM and the GI50 (M14 melanoma) was 16.3 µM. The TGI (M14 melanoma) was 34.2 µM, the GI50 (MALME-3M melanoma) was 14.7 µM and the TGI (MALME-3M melanoma) was 29.3 µM. For the same compound, the GI50 (MCF7 breast) was 12.4 µM, the TGI (MCF7 breast) was 32.4 µM and the GI50 (MDA-MB-231 breast) was 15 µM. The TGI (MDA-MB-231 breast) was 30.9 µM, the GI50 (MDA-MB-435) was 15.6 µM and the TGI (MDA-MB-435) was 37 µM. For the same compound, the GI50 (MDA-MB-468 breast) was 13.4 µM, the TGI (MDA-MB-468 breast) was 26.6 µM and the GI50 (MOLT-4 leukemia) was 19.6 µM. The TGI (MOLT-4 leukemia) was over 100 µM, the GI50 (NCI-H226 lung) was 16.6 µM and the TGI (NCI-H226 lung) was 35.1 µM. The GI50 (NCI-H23 lung) was 17.6 µM, the TGI (NCI-H23 lung) was 35.2 µM and the GI50 (NCI-H460 lung) was 18.2 µM. It also gave a TGI (NCI-H460 lung) of 38.6 µM, a GI50 (NCI-H522 lung) of 13.6 µM and a TGI (NCI-H522 lung) of 26.7 µM. The GI50 (NCI/ADR-RES ovarian) was 17 µM, the TGI (NCI/ADR-RES ovarian) was 38 µM and the GI50 (OVCAR-3 ovarian) was 10.8 µM. The TGI (OVCAR-3 ovarian) was 26.6 µM, the GI50 (OVCAR-4 ovarian) was 13.5 µM and the TGI (OVCAR-4 ovarian) was 38.4 µM. For the same compound, the GI50 (OVCAR-5 ovarian) was 17.6 µM, the TGI (OVCAR-5 ovarian) was 31.9 µM and the GI50 (OVCAR-8 ovarian) was 12.8 µM. For the same compound, the TGI (OVCAR-8 ovarian) was 28.7 µM, the GI50 (PC-3 prostate) was 13.2 µM and the TGI (PC-3 prostate) was 39.6 µM. For the same compound, the GI50 (RPMI-8226 leukemia) was 3.11 µM, the TGI (RPMI-8226 leukemia) was 38.1 µM and the GI50 (RXF 393 renal) was 11.1 µM. For the same compound, the TGI (RXF 393 renal) was 24.9 µM, the GI50 (SF-268 CNS) was 27.9 µM and the TGI (SF-268 CNS) was over 100 µM. For the same compound, the GI50 (SF-295 CNS) was 25.9 µM, the TGI (SF-295 CNS) was over 100 µM and the GI50 (SF-539 CNS) was 14 µM. It also gave a TGI (SF-539 CNS) of 27 µM, a GI50 (SK-MEL-2 melanoma) of 14.6 µM and a TGI (SK-MEL-2 melanoma) of 29 µM. For the same compound, the GI50 (SK-MEL-28 melanoma) was 15.7 µM, the TGI (SK-MEL-28 melanoma) was 29.7 µM and the GI50 (SK-MEL-5 melanoma) was 15.8 µM. The TGI (SK-MEL-5 melanoma) was 31.3 µM, the GI50 (SK-OV-3 ovarian) was 57.7 µM and the TGI (SK-OV-3 ovarian) was over 100 µM. The GI50 (SN12C renal) was 14.4 µM, the TGI (SN12C renal) was 30.6 µM and the GI50 (SNB-19 CNS) was 25.3 µM. It also gave a TGI (SNB-19 CNS) of 84.2 µM, a GI50 (SNB-75 CNS) of 5.83 µM and a TGI (SNB-75 CNS) of 49.6 µM. For the same compound, the GI50 (SW-620 colon) was 9.77 µM, the TGI (SW-620 colon) was 23.8 µM and the GI50 (T-47D breast) was 18.6 µM. For the same compound, the TGI (T-47D breast) was 55.1 µM, the GI50 (TK-10 renal) was 25.9 µM and the TGI (TK-10 renal) was 62.4 µM. It also gave a GI50 (U251 CNS) of 15.2 µM, a TGI (U251 CNS) of 28.6 µM and a GI50 (UACC-257 melanoma) of 15.5 µM. For the same compound, the TGI (UACC-257 melanoma) was 32.8 µM, the GI50 (UACC-62 melanoma) was 13.6 µM and the TGI (UACC-62 melanoma) was 28.8 µM. For the same compound, the GI50 (UO-31 renal) was 13.2 µM and the TGI (UO-31 renal) was 26 µM.
Work on `COc1cc2cc(Oc3ccc(NC(=O)Nc4ccccc4)cc3)c(C)nc2cc1OCCN1CCCCC1` yielded a GI50 (MDA-MB-468 breast) of 5.64 µM and a TGI (MDA-MB-468 breast) of 10.8 µM.
In the case of `C=C(CNCCc1ccc(O)cc1)[C@@H]1CC[C@]2(CO)CC[C@]3(C)[C@H](CC[C@@H]4[C@@]5(C)CCC(=O)C(C)(C)[C@@H]5CC[C@]43C)[C@@H]12`, the GI50 (MDA-MB-468 breast) was 1.53 µM and the TGI (MDA-MB-468 breast) was 3.1 µM.
For `CS(=O)(=O)N1CCN(Cc2cc3nc(-c4cccc5[nH]ncc45)nc(N4CCOCC4)c3s2)CC1` (tested in a mixture with another compound), the GI50 (MDA-MB-468 breast) was 0.109 µM and the TGI (MDA-MB-468 breast) was 0.697 µM.
`C/C=C(\C)C(=O)O[C@@H]1C(O)[C@H]2OC(COC(=O)CCC(=O)CCCCCC[C@H](CCCCC)O[C@@H]3OC(C)[C@H](OC(C)=O)C(O)[C@H]3O2)[C@H]1OC(=O)/C=C/c1ccccc1` (stereo not given in full) was tested, and the GI50 (MDA-MB-468 breast) was under 0.01 µM and the TGI (MDA-MB-468 breast) was 1.18 µM.
`N#CC1C(=N)Cc2ccccc2-c2ccccc21` (stereo not given) was tested, and the GI50 (MDA-MB-468 breast) was 3.15 µM and the TGI (MDA-MB-468 breast) was 13.4 µM.
`COc1ccc2nc(NCCCNCCO)c3sc4ccc(F)cc4c(=O)c3c2c1` was tested, and the GI50 (MDA-MB-468 breast) was 1.71 µM and the TGI (MDA-MB-468 breast) was 3.28 µM.
`Nc1nc2c(c3ncccc13)C(c1cccc(Cl)c1)Cc1ncccc1-2` (stereo not given) showed a GI50 (MDA-MB-468 breast) of 1.61 µM and a TGI (MDA-MB-468 breast) of 22.7 µM.
